Test results taken from patent US12441726B2, “Compounds and uses thereof” (Foghorn Therapeutics Inc., priority 2020, dated 2025).

Tests used:
BRM = BRM (Homo sapiens, UniProt P51531); assay: ATPase catalytic activity assay (ADP-Glo), BRM; details: 30 nM BRM, 400 μM ATP; for IC50: BRM ATPase: IC50 (uM)
BRG-1 = BRG-1 (Homo sapiens, UniProt P51532); assay: ATPase catalytic activity assay (ADP-Glo), BRG-1; details: for Emax: 1 h, read-out: BRG1 Max % Inhibition, ADP-Glo, 30 nM BRG-1, 400 μM ATP
Sequence of BRG-1 (P51532 whole entry): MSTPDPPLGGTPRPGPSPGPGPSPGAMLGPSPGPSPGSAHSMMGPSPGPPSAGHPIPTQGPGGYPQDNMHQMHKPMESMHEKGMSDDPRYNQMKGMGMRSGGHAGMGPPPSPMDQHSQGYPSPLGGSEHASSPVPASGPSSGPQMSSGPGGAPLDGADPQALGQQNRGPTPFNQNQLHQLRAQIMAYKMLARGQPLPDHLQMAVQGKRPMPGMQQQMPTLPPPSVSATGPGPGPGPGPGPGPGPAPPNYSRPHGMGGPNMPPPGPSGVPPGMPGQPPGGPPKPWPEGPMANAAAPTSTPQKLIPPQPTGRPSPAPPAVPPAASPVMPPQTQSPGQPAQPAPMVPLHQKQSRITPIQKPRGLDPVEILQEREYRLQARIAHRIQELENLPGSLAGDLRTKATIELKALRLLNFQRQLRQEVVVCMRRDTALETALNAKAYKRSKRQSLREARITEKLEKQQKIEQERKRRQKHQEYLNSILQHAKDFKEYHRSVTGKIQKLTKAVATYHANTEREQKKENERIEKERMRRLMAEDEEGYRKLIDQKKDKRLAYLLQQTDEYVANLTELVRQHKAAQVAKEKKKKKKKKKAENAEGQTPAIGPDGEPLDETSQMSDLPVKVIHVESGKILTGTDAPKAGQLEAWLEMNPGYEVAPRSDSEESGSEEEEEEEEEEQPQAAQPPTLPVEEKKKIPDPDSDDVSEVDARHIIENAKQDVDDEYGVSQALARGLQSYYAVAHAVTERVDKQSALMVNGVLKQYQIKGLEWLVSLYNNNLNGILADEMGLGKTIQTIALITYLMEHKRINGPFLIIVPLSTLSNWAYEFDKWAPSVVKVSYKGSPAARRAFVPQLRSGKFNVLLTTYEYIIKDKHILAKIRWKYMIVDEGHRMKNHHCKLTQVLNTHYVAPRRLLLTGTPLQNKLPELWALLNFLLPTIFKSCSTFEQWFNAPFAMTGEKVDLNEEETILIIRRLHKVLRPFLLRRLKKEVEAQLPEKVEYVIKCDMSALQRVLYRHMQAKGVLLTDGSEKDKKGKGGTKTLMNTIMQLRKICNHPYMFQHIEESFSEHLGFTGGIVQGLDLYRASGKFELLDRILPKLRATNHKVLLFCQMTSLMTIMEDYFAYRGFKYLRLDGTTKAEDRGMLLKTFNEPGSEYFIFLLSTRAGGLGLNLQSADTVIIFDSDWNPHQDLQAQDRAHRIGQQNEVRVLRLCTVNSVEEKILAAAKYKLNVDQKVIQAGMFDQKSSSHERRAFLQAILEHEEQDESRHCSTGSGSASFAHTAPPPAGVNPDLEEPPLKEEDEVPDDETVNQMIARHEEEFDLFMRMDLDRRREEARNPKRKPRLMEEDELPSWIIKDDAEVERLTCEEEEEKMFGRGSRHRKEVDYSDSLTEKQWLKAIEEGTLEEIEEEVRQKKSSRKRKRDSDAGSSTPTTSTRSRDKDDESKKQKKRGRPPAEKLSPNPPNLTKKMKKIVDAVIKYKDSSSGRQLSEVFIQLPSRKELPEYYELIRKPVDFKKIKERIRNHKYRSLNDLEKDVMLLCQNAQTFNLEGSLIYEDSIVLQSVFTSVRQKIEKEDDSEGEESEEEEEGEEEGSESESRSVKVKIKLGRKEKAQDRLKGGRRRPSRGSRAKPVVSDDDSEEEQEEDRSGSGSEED

Sequence of BRM (P51531 whole entry): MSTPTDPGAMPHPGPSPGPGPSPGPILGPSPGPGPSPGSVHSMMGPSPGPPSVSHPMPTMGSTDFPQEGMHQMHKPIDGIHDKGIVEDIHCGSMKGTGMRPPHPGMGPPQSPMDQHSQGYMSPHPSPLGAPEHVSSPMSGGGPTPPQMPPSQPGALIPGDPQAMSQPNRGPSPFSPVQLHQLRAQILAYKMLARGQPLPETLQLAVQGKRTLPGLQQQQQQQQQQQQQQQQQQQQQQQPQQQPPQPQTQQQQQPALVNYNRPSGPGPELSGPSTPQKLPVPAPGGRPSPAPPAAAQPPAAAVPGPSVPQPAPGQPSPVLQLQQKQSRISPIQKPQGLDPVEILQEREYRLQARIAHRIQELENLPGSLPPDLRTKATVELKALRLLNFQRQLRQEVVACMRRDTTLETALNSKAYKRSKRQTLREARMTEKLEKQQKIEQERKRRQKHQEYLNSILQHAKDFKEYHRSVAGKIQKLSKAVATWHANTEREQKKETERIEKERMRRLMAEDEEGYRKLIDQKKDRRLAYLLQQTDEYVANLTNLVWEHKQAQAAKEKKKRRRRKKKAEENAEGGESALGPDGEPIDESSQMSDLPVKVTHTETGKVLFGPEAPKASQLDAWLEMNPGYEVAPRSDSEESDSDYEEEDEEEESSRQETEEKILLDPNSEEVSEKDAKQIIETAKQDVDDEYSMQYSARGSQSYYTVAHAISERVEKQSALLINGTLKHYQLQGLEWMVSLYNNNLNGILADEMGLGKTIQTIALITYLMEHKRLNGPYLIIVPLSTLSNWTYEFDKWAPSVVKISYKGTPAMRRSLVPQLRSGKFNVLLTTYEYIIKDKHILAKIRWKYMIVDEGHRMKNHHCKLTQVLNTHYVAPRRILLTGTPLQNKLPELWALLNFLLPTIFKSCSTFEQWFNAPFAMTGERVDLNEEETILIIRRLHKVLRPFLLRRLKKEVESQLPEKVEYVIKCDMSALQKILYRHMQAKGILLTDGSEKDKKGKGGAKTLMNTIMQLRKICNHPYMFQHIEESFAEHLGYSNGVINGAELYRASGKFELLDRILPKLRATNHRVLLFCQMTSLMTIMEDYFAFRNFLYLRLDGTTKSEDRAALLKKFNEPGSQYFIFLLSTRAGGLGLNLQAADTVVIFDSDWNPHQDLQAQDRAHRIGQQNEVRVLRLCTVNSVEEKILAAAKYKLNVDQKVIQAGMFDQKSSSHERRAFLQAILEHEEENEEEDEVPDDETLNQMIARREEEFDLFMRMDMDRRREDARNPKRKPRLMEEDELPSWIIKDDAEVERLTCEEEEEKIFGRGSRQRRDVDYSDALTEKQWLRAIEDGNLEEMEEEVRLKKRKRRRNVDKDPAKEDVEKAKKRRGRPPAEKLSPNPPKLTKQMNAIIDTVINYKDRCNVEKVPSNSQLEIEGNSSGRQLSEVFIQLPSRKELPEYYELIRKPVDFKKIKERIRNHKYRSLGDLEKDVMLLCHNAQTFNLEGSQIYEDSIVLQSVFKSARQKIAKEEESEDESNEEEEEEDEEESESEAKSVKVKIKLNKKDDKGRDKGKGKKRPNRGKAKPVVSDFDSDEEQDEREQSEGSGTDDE

| Compound | BRM Max % Inhibition (BRM) [%] | IC50 (BRM) [µM] | IC50 (BRG-1) [µM] | Emax (BRG-1) [%] |
| --- | --- | --- | --- | --- |
| Cn1ncc2c1CN(c1ccc3cnc(CNC(=O)c4ccc5c(c4)[C@](C)(C#N)COC5)cc3n1)CC2 [Compound 457] | 95 | 0.1 to 0.5 | 0.5 to 1 | 61 |
| Cn1cc2c(n1)CN(c1ccc3cnc(CNC(=O)c4ccc5c(c4)[C@](C)(C#N)COC5)cc3n1)CC2 [Compound 458] | 95 | 0.1 to 0.5 | 0.5 to 1 | 74 |
| C[C@@]1(C#N)COCc2ccc(C(=O)NCc3cc4nc(-c5ccn6nccc6c5)ccc4cn3)cc21 [Compound 459] | 97 | < 0.1 | 0.1 to 0.5 | 86 |
| CNC(=O)c1cccc(-c2ccc3cnc(CNC(=O)c4ccc5c(c4)[C@](C)(C#N)COC5)cc3n2)c1F [Compound 460] | 98 | 0.1 to 0.5 | 0.5 to 1 | 75 |
| Cn1ncc2c1CN(c1ccc3cnc(CNC(=O)c4ccc5c(c4)[C@](C)(C#N)COC5)cc3n1)C2 [Compound 461] | 93 | 0.1 to 0.5 | 0.5 to 1 | 65 |
| COc1c(-c2ccc3cnc(CNC(=O)c4ccc5c(c4)[C@](C)(C#N)COC5)cc3n2)cnn1C [Compound 462] | 93 | 0.1 to 0.5 | 0.5 to 1 | 71 |
| C[C@@]1(C#N)COCc2ccc(C(=O)NCc3cc4nc(-c5ccccc5)cnc4cn3)cc21 [Compound 463] | 98 | < 0.1 | 0.5 to 1 | 82 |
| CN(C)C(=O)c1cccc(-c2ccc3cnc(CNC(=O)c4ccc5c(c4)[C@](C)(C#N)COC5)cc3n2)n1 [Compound 464] | 88 | 0.1 to 0.5 | > 1 | 48 |
| CN1CCN(c2cccc(-c3ccc4cnc(CNC(=O)c5ccc6c(c5)[C@](C)(C#N)COC6)cc4n3)n2)CC1 [Compound 465] | 99 | < 0.1 | 0.1 to 0.5 | 89 |
| CNC(=O)c1cccc(-c2ccc3cnc(CNC(=O)c4ccc5c(c4)[C@](C)(C#N)COC5)cc3n2)n1 [Compound 466] | 99 | < 0.1 | 0.5 to 1 | 79 |
| CNC(=O)c1cc(-c2ccc3cnc(CNC(=O)c4ccc5c(c4)[C@](C)(C#N)COC5)cc3n2)ccc1F [Compound 467] | 99 | < 0.1 | 0.1 to 0.5 | 86 |
| COCCNC(=O)c1cccc(-c2ccc3cnc(CNC(=O)c4ccc5c(c4)[C@](C)(C#N)COC5)cc3n2)c1 [Compound 468] | 100 | < 0.1 | 0.5 to 1 | 80 |
| C[C@@]1(C#N)COCc2ccc(C(=O)NCc3cc4nc(-c5cccc(C(F)F)n5)ccc4cn3)cc21 [Compound 469] | 98 | < 0.1 | 0.1 to 0.5 | 85 |
| C[C@@]1(C#N)COCc2ccc(C(=O)NCc3cc4nc(N5CCCC5=O)ccc4cn3)cc21 [Compound 471] | 96 | 0.1 to 0.5 | > 1 | 63 |
| CN(C)c1ncc(-c2ccc3cnc(CNC(=O)c4ccc5c(c4)[C@](C)(C#N)COC5)cc3n2)cn1 [Compound 472] | 86 | 0.1 to 0.5 | > 1 | 51 |
| C[C@@]1(C#N)COCc2ccc(C(=O)NCc3cc4nc(-n5cccn5)ccc4cn3)cc21 [Compound 473] | 96 | 0.1 to 0.5 | > 1 | 72 |
| CN1CCN(c2cccc(-c3ccc4cnc(CNC(=O)c5ccc6c(c5)[C@](C)(C#N)COC6)cc4n3)c2)CC1 [Compound 474] | 93 | 0.1 to 0.5 | > 1 | 53 |
| CC(=O)N1CCOc2ccc(-c3ccc4cnc(CNC(=O)c5ccc6c(c5)[C@](C)(C#N)COC6)cc4n3)cc21 [Compound 475] | 99 | < 0.1 | 0.1 to 0.5 | 98 |

| Compound | BRM Max % Inhibition (BRM) [%] | IC50 (BRM) [µM] | IC50 (BRG-1) [µM] | Emax (BRG-1) [%] |
| --- | --- | --- | --- | --- |
| CN1C(=O)Cc2ccc(-c3ccc4cnc(CNC(=O)c5ccc6c(c5)[C@](C)(C#N)COC6)cc4n3)cc21 [Compound 476] | 94 | 0.1 to 0.5 | 0.5 to 1 | 63 |
| C[C@@]1(C#N)COCc2ccc(C(=O)NCc3cc4nc(-c5cnn(-c6ccncc6)c5)ccc4cn3)cc21 [Compound 477] | 88 | 0.1 to 0.5 | > 1 | 49 |
| C[C@@]1(C#N)COCc2ccc(C(=O)NCc3cc4nc(-c5ccc(C(F)F)nc5)ccc4cn3)cc21 [Compound 478] | 95 | 0.1 to 0.5 | 0.5 to 1 | 63 |
| C[C@@]1(C#N)COCc2ccc(C(=O)NCc3cc4nc(-c5cccc(C6(O)COC6)c5)ccc4cn3)cc21 [Compound 479] | 96 | 0.1 to 0.5 | 0.5 to 1 | 72 |
| COc1cc(F)ccc1-c1ccc2cnc(CNC(=O)c3ccc4c(c3)[C@](C)(C#N)COC4)cc2n1 [Compound 481] | 98 | < 0.1 | 0.1 to 0.5 | 95 |
| COc1cncc(-c2ccc3cnc(CNC(=O)c4ccc5c(c4)[C@](C)(C#N)COC5)cc3n2)c1 [Compound 482] | 90 | 0.1 to 0.5 | 0.5 to 1 | 55 |
| CNC(=O)c1cccc(-c2ccc3cnc(CNC(=O)c4ccc5c(c4)[C@](C)(C#N)COC5)cc3n2)c1 [Compound 483] | 93 | 0.1 to 0.5 | 0.5 to 1 | 72 |
| C[C@@]1(C#N)COCc2ccc(C(=O)NCc3cc4nc(-c5cccc(C(=O)N6CCC6)c5)ccc4cn3)cc21 [Compound 484] | 96 | 0.1 to 0.5 | 0.5 to 1 | 77 |
| CN1Cc2ccc(-c3ccc4cnc(CNC(=O)c5ccc6c(c5)[C@](C)(C#N)COC6)cc4n3)cc2C1=O [Compound 485] | 93 | 0.1 to 0.5 | 0.5 to 1 | 82 |
| C[C@@]1(C#N)COCc2ccc(C(=O)NCc3cc4nc(N5CCn6nccc6C5)ccc4cn3)cc21 [Compound 486] | 95 | 0.1 to 0.5 | > 1 | 70 |
| C[C@@]1(C#N)COCc2ncc(C(=O)NCc3cc4nc(-c5cc(F)cc(N6CCC6)c5)ccc4cn3)cc21 [Compound 487] | 100 | < 0.1 | 0.1 to 0.5 | 95 |
| COc1ncccc1-c1ccc2cnc(CNC(=O)c3ccc4c(c3)[C@](C)(C#N)COC4)cc2n1 [Compound 488] | 101 | < 0.1 | 0.1 to 0.5 | 91 |
| COc1ccncc1-c1ccc2cnc(CNC(=O)c3ccc4c(c3)[C@](C)(C#N)COC4)cc2n1 [Compound 489] | 97 | 0.1 to 0.5 | 0.5 to 1 | 76 |
| CN(C)C(=O)c1cccc(-c2ccc3cnc(CNC(=O)c4ccc5c(c4)[C@](C)(C#N)COC5)cc3n2)c1 [Compound 490] | 93 | 0.1 to 0.5 | > 1 | 40 |
| COc1c(-c2ccc3cnc(CNC(=O)c4ccc5c(c4)[C@](C)(C#N)COC5)cc3n2)ccc2cnn(C)c12 [Compound 491] | 98 | 0.1 to 0.5 | 0.5 to 1 | 76 |
| COc1cccc(-c2ccc3cnc(CNC(=O)c4ccc5c(c4)[C@](C)(C#N)COC5)cc3n2)n1 [Compound 492] | 99 | < 0.1 | 0.1 to 0.5 | 91 |
| C[C@@]1(C#N)COCc2ccc(C(=O)NCc3cc4nc(-c5cnn6ccccc56)ccc4cn3)cc21 [Compound 493] | 96 | 0.1 to 0.5 | 0.5 to 1 | 68 |
